Literature values, collected in patent publication US20100203024A1 (priority 2006, published 2010).

Test system: non-small-cell lung cancer
Settings: patients with refractory disease

C#Cc1cccc(Nc2ncnc3cc(OCCOC)c(OCCOC)cc23)c1 [erlotinib]
partial responses, percent of patients: 9%
